The target in series [1] is Bromodomain-containing protein 4 (Homo sapiens, UniProt O60885). In words: Binding affinity to His6-fused BRD4 BD1 (unknown origin) assessed as dissociation constant in PBS incubated for 1 hrs by biolayer interferometry analysis. A general note: Biolayer interferometry detects binding as a change in optical thickness at a sensor tip.
The subject of series [2] is HepG2. The series can be described thus: Antiproliferative activity against human HepG2 cells assessed as cell growth inhibition incubated for 72 hrs by Cell titre Glo-luminiscence cell viability assay. The format is functional, cell-based. Conditions: HepG2, 72 h.
Series [3] relates to MOLM-13. The series can be described thus: Antiproliferative activity against human MOLM-13 cells assessed as cell growth inhibition incubated for 72 hrs by Cell titre Glo-luminiscence cell viability assay. The format is functional, cell-based. Conditions: MOLM-13, 72 h.
Series [4] concerns THP-1. In words: Antiproliferative activity against human THP-1 cells assessed as cell growth inhibition incubated for 72 hrs by Cell titre Glo-luminiscence cell viability assay. In kind it is functional, cell-based. The note with it: THP-1, 72 h.
Series [5] deals with CWR22R. In words: Antiproliferative activity against human 22Rv1 cells assessed as cell growth inhibition incubated for 72 hrs by Cell titre Glo-luminiscence cell viability assay. The format is functional, cell-based. Conditions: 22Rv1, 72 h.
Series [6] relates to A549. The series can be described thus: Antiproliferative activity against human A549 cells assessed as cell growth inhibition incubated for 72 hrs by Cell titre Glo-luminiscence cell viability assay. In kind it is functional, cell-based. Conditions: A549, 72 h.
Series [7] can be described thus: Metabolic stability in human hepatocytes assessed as hepatic clearance at 1 uM measured up to 60 mins in presence of NADPH by HPLC-MS/MS analysis. In kind it is ADME, cell-based, Hepatocyte.
Series [8] in a line: Metabolic stability in human liver microsomes assessed as intrinsic clearance at 1 uM measured up to 60 mins in presence of NADPH by HPLC-MS/MS analysis. Conditions: 1 h. The format is ADME, Microsome. Background: Liver microsomes are a subcellular fraction often used to study metabolism.
Series [9] has as its system BXPC-3. In words: Antiproliferative activity against human BxPC-3 cells assessed as cell growth inhibition incubated for 72 hrs by Cell titre Glo-luminiscence cell viability assay. In kind it is functional, cell-based. Conditions: BXPC-3, 72 h.
For series [10], the system named is U-937. In words: Antiproliferative activity against human U-937 cells assessed as cell growth inhibition incubated for 72 hrs by Cell titre Glo-luminiscence cell viability assay. The format is functional, cell-based. The note with it: U-937, 72 h.
The subject of series [11] is MCF7. In words: Antiproliferative activity against human MCF7 cells assessed as cell growth inhibition incubated for 96 hrs by Cell titre Glo-luminiscence cell viability assay. The note with it: MCF7, 96 h. In kind it is functional, cell-based.
The nature of series [12]: Metabolic stability in rat liver microsomes assessed as intrinsic clearance at 1 uM measured up to 60 mins in presence of NADPH by HPLC-MS/MS analysis. The format is ADME, Microsome. The note with it: 1 h.
Series [13] deals with HT-29. In words: Antiproliferative activity against human HT-29 cells assessed as cell growth inhibition incubated for 120 hrs by Cell titre Glo-luminiscence cell viability assay. In kind it is functional, cell-based. The note with it: HT-29, 120 h.
The nature of series [14]: Cytotoxicity against human HFL1 cells assessed as cell growth inhibition incubated for 72 hrs by Cell titre Glo-luminiscence cell viability assay. The format is toxicity, cell-based.
The test system of series [15] is Kasumi 1. In words: Antiproliferative activity against human Kasumi 1 cells assessed as cell growth inhibition incubated for 72 hrs by Cell titre Glo-luminiscence cell viability assay. The format is functional, cell-based. Conditions: Kasumi 1, 72 h.
Series [16] relates to MDA-MB-231. In words: Antiproliferative activity against human MDA-MB-231 cells assessed as cell growth inhibition incubated for 96 hrs by Cell titre Glo-luminiscence cell viability assay. The format is functional, cell-based. Conditions: MDA-MB-231, 96 h.

The values below come from ChEMBL document CHEMBL5154816, “Structure-Based Discovery and Optimization of Furo[3,2-c]pyridin-4(5H)-one Derivatives as Potent and Second Bromodomain (BD2)-Selective Bromo and Extra Terminal Domain (BET) Inhibitors” (J Med Chem, 2022).

In the case of `Cc1cc(F)cc(C)c1Oc1ccc(C(C)(C)O)cc1-c1cn(C)c(=O)c2cc(-c3cnc(C4CCCCC4)[nH]3)oc12`, in [1], the Kd is 4.96 µM.
As to `Cc1cc(F)cc(C)c1Oc1ccc(C(C)(C)O)cc1-c1cn(C)c(=O)c2cc(-c3cnc(C4CCCC4)[nH]3)oc12`, the IC50 in series [2] came to 1 µM; in series [3], 0.26 µM; in [4], 1.3 µM; in [5], 0.232 µM; in series [6] it was 1 µM; in series [9] it was 1 µM. The IC50 in series [10] came to 1 µM; in series [11], 1 µM; in [13], 0.3 µM; in series [15] it was 0.471 µM; in [16], 1 µM. For the same molecule, the CLhep predicted at 1 µM in series [7] was 17.5 mL/min/kg. Moreover, the CLH in series [7] (1 h, 1 µM) was determined as 0.115 mL/min/g; in series [8] it was 0.115 mL/min/g; in series [12], 0.043 mL/min/g. Also, the half-maximal inhibitory concentration (IC50) at 72 h in [14] turned out to be 4.6 µM.

As a reminder, the Kd is a measure of binding affinity in units of concentration. The IC50 is the concentration that inhibits the measured activity by half.
